Results from ChEMBL document CHEMBL2062477, “Dual-Specificity Phosphatase CDC25A/B Inhibitor Identified from a Focused Library with Nonelectrophilic Core Structure” (ACS Med Chem Lett, 2012).

Target: T1, M-phase inducer phosphatase 1 (Homo sapiens, UniProt P30304)
T1 sequence (P30304 whole entry): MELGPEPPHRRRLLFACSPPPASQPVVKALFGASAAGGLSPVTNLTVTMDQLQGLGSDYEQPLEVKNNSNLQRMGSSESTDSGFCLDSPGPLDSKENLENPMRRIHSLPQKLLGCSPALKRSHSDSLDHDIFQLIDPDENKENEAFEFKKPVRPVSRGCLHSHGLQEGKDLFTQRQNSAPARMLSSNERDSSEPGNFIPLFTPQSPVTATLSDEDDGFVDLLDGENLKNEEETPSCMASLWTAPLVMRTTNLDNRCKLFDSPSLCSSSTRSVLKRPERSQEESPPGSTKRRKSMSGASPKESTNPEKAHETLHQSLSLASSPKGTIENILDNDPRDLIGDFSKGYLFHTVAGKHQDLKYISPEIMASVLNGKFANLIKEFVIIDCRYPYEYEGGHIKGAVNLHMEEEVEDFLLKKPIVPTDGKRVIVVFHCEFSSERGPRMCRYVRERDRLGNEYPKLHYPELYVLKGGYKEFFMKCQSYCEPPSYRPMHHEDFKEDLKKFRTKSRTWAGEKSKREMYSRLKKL
Test: Inhibition of CDC25A

Row | IC50 | SMILES
1 | 15.4 µM | CCCCCCCCCCCCCCCC(NCc1cccc(O)c1)=C1C(=O)OC(CO)C1=O (mixture of isomers)
2 | 10.2 µM | CCCCCCCCCCCCCCCC(NCc1cccc(OC)c1)=C1C(=O)OC(CO)C1=O (mixture of isomers)
3 | 11.4 µM | CCCCCCCCCCCCCCCC(NCc1cccc(N(C)C)c1)=C1C(=O)OC(CO)C1=O (mixture of isomers)
4 | 6.25 µM | CCCCCCCCCCCCCCCC(NCc1ccc(Cl)cc1)=C1C(=O)OC(CO)C1=O (mixture of isomers)

Target: T2, M-phase inducer phosphatase 2 (Homo sapiens, UniProt P30305)
T2 sequence (P30305 whole entry): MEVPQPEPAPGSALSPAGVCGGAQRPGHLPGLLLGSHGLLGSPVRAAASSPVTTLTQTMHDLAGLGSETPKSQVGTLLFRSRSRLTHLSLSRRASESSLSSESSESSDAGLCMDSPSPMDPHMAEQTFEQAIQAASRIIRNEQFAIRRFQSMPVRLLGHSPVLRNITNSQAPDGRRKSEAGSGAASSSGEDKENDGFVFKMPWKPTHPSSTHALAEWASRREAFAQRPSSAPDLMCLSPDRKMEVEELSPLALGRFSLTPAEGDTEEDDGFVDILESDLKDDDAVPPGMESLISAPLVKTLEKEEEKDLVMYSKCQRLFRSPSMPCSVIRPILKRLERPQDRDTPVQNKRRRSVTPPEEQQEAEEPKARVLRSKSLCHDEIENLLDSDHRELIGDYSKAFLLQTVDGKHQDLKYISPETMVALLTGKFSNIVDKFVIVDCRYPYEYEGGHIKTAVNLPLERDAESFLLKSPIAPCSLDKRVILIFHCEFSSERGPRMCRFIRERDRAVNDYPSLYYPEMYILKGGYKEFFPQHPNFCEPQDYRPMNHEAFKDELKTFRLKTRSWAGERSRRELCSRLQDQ
Test: Inhibition of CDC25B

Row | IC50 | SMILES
5 | 3.15 µM | CCCCCCCCCCCCCCCC(NCc1cccc(O)c1)=C1C(=O)OC(CO)C1=O (mixture of isomers)
6 | 8.31 µM | CCCCCCCCCCCCCCCC(NCc1cccc(OC)c1)=C1C(=O)OC(CO)C1=O (mixture of isomers)
7 | 6.55 µM | CCCCCCCCCCCCCCCC(NCc1cccc(N(C)C)c1)=C1C(=O)OC(CO)C1=O (mixture of isomers)
8 | 5.52 µM | CCCCCCCCCCCCCCCC(NCc1ccc(Cl)cc1)=C1C(=O)OC(CO)C1=O (mixture of isomers)

Target: T3, M-phase inducer phosphatase 3 (Homo sapiens, UniProt P30307)
T3 sequence (P30307 whole entry): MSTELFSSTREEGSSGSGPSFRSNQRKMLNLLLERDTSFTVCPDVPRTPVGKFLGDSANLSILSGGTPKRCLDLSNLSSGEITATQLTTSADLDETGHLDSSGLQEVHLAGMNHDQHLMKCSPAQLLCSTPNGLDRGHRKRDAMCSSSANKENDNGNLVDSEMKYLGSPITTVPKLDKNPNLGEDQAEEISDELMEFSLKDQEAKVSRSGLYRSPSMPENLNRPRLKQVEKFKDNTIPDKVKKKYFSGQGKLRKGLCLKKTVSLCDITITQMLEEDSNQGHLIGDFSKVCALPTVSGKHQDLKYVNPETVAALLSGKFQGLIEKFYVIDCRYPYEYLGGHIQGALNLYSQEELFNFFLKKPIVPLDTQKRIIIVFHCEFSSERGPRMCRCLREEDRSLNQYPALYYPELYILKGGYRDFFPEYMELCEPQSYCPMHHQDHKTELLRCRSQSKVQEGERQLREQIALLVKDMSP
Test: Inhibition of CDC25C

Row | IC50 | SMILES
9 | > 100 µM | CCCCCCCCCCCCCCCC(NCc1cccc(O)c1)=C1C(=O)OC(CO)C1=O (mixture of isomers)
10 | > 100 µM | CCCCCCCCCCCCCCCC(NCc1cccc(OC)c1)=C1C(=O)OC(CO)C1=O (mixture of isomers)
11 | > 100 µM | CCCCCCCCCCCCCCCC(NCc1cccc(N(C)C)c1)=C1C(=O)OC(CO)C1=O (mixture of isomers)
12 | > 100 µM | CCCCCCCCCCCCCCCC(NCc1ccc(Cl)cc1)=C1C(=O)OC(CO)C1=O (mixture of isomers)

Target: Dual specificity protein phosphatase 3 (Homo sapiens, UniProt P51452)
Test: Inhibition of VHR

Chain of Dual specificity protein phosphatase 3 (P51452 whole entry): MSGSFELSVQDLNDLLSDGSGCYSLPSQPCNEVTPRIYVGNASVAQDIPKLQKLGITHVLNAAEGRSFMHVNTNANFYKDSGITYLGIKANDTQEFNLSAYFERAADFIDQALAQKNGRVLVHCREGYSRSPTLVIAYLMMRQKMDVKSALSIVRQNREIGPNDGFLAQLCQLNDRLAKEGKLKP

Row | IC50 | SMILES
13 | 11.1 µM | CCCCCCCCCCCCCCCC(NCc1cccc(O)c1)=C1C(=O)OC(CO)C1=O (mixture of isomers)
14 | 5.53 µM | CCCCCCCCCCCCCCCC(NCc1cccc(OC)c1)=C1C(=O)OC(CO)C1=O (mixture of isomers)
15 | 5.13 µM | CCCCCCCCCCCCCCCC(NCc1cccc(N(C)C)c1)=C1C(=O)OC(CO)C1=O (mixture of isomers)
16 | 3.63 µM | CCCCCCCCCCCCCCCC(NCc1ccc(Cl)cc1)=C1C(=O)OC(CO)C1=O (mixture of isomers)

Target: T4, Dual specificity protein phosphatase 1 (Homo sapiens, UniProt P28562)
T4 sequence (P28562 whole entry): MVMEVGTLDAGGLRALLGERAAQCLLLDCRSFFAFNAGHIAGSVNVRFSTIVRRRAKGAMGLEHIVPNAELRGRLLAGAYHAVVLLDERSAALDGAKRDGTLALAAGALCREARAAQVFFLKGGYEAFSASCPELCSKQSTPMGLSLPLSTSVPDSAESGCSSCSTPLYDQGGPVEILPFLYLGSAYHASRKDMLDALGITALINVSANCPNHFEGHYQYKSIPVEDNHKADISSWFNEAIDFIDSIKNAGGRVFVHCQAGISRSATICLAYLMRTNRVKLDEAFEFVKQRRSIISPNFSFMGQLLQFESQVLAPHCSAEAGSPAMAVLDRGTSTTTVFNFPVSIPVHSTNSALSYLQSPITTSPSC
Test: Inhibition of MKP1

Row | IC50 | SMILES
17 | > 100 µM | CCCCCCCCCCCCCCCC(NCc1cccc(O)c1)=C1C(=O)OC(CO)C1=O (mixture of isomers)
18 | > 100 µM | CCCCCCCCCCCCCCCC(NCc1cccc(OC)c1)=C1C(=O)OC(CO)C1=O (mixture of isomers)
19 | > 100 µM | CCCCCCCCCCCCCCCC(NCc1cccc(N(C)C)c1)=C1C(=O)OC(CO)C1=O (mixture of isomers)
20 | > 100 µM | CCCCCCCCCCCCCCCC(NCc1ccc(Cl)cc1)=C1C(=O)OC(CO)C1=O (mixture of isomers)

Target: T5, Dual specificity protein phosphatase 6 (Homo sapiens, UniProt Q16828)
T5 sequence (Q16828 whole entry): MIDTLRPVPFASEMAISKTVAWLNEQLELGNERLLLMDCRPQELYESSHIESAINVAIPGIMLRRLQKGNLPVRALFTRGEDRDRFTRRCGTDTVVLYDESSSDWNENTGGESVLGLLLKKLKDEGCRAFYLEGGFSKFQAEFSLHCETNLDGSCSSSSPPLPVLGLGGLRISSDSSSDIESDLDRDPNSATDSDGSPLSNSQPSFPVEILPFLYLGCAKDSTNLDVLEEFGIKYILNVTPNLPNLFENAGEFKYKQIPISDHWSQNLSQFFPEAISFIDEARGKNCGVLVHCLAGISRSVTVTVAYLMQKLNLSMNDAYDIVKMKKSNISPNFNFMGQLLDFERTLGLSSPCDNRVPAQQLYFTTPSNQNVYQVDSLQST
Test: Inhibition of MKP3

Row | IC50 | SMILES
21 | > 100 µM | CCCCCCCCCCCCCCCC(NCc1cccc(O)c1)=C1C(=O)OC(CO)C1=O (mixture of isomers)
22 | > 100 µM | CCCCCCCCCCCCCCCC(NCc1cccc(OC)c1)=C1C(=O)OC(CO)C1=O (mixture of isomers)
23 | > 100 µM | CCCCCCCCCCCCCCCC(NCc1cccc(N(C)C)c1)=C1C(=O)OC(CO)C1=O (mixture of isomers)
24 | > 100 µM | CCCCCCCCCCCCCCCC(NCc1ccc(Cl)cc1)=C1C(=O)OC(CO)C1=O (mixture of isomers)

Target: T6, Tyrosine-protein phosphatase non-receptor type 1 (Homo sapiens, UniProt P18031)
T6 sequence (P18031 whole entry): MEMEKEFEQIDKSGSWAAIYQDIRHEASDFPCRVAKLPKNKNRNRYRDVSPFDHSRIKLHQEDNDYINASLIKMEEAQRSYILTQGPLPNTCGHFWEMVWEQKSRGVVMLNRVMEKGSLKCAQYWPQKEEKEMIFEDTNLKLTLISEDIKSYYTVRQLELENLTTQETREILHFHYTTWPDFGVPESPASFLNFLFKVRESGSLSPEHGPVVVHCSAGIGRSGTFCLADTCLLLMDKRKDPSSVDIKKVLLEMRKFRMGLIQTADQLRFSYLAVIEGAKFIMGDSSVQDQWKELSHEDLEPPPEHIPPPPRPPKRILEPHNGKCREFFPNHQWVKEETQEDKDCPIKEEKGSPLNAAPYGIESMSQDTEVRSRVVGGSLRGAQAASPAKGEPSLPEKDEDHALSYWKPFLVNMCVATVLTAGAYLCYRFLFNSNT
Test: Inhibition of PTP1B

Row | IC50 | SMILES
25 | > 100 µM | CCCCCCCCCCCCCCCC(NCc1cccc(O)c1)=C1C(=O)OC(CO)C1=O (mixture of isomers)
26 | > 100 µM | CCCCCCCCCCCCCCCC(NCc1cccc(OC)c1)=C1C(=O)OC(CO)C1=O (mixture of isomers)
27 | > 100 µM | CCCCCCCCCCCCCCCC(NCc1cccc(N(C)C)c1)=C1C(=O)OC(CO)C1=O (mixture of isomers)
28 | > 100 µM | CCCCCCCCCCCCCCCC(NCc1ccc(Cl)cc1)=C1C(=O)OC(CO)C1=O (mixture of isomers)
